According to patent publication US20130029928A1 (priority 2010, published 2013):
Like-named read-outs stand apart in the source and are kept apart here.

Test: Phase I study CXR1002-001: plasma pharmacokinetics (LC-MS/MS)
Format: in vivo, human
Conditions: human, plasma, oral; for concentration at 528 h / concentration at 528 hr: 528 hr (Day 23); for concentration at 696 h: 696 hr (Day 30); for concentration at 840 h: 840 hr (Day 36)
Description: PK samples, PD (fasting) samples, blood glucose, and blood triglyceride samples, were taken over a 6-week period.
Dose limiting toxicity (DLT) will be based on the toxicity assessments over the first 3-week period of the repeat dosing schedule. PK samples (single blood sample) were taken on the following basis: • Every 6 weeks during the repeat dosing phase • If dosing is interrupted or stopped, samples will be taken at intervals according to patient convenience • PK sampling for safety evaluation may take place at any time, as clinically indicated
Plasma samples were collected after the single 50 mg dose at the following timepoints: Pre-dose, and then 0.25, 0.5, 0.75, 1, 1.5, 2, 3, 4, 6, 24, 48, and 72 hours after administration and then once weekly at weeks 2, 3, 4, 5, and 6 (days 8, 15, 22, 29, and 36). For patients treated with the weekly repeat dose, plasma samples were collected at the following timepoints: Pre-dose and then 2, 3, 4 and 24 hours after administration for a total of 6 weeks. Thereafter a single sample was collected every 6 weeks for monitoring of exposure during long term treatment. Plasma samples were processed at site and stored at −80° C. prior to batch shipment to the analytical laboratory.

[1] = 100 mg, Patient 005 Dose 100 mg, read-out: Concentration
[2] = 100 mg, Patient 006 Dose 100 mg, read-out: Concentration
[3] = 100 mg, Patient 007 Dose 100 mg, read-out: Concentration
[4] = 200 mg, Patient 008 Dose 200 mg, read-out: Concentration
[5] = 200 mg, Patient 009 Dose 200 mg, read-out: Concentration

O=C(O)C(F)(F)C(F)(F)C(F)(F)C(F)(F)C(F)(F)C(F)(F)C(F)(F)F [CXR1002]
concentration at 360 h (100 mg, Patient 005 Dose 100 mg, 360 hr (Day 16), read-out: Concentration): 47.4 µM
concentration at 504 h (100 mg, Patient 005 Dose 100 mg, 504 hr (Day 22), read-out: Concentration): 48.4 µM
concentration at 506 h (100 mg, Patient 005 Dose 100 mg, 506 hr, read-out: Concentration): 84 µM
concentration at 507 h [1]: 74.4 µM
concentration at 508 h (100 mg, Patient 005 Dose 100 mg, 508 hr, read-out: Concentration): 87.4 µM
concentration at 528 h [1]: 57.9 µM
concentration at 672 h (100 mg, Patient 005 Dose 100 mg, 672 hr (Day 29), read-out: Concentration): 80.8 µM
concentration at 674 h (100 mg, Patient 005 Dose 100 mg, 674 hr, read-out: Concentration): 99.7 µM
concentration at 675 h (100 mg, Patient 005 Dose 100 mg, 675 hr, read-out: Concentration): 101 µM
concentration at 676 h [1]: 82.7 µM
concentration at 696 h [1]: 78.8 µM
concentration at 840 h [1]: 99.4 µM
concentration at 842 h (100 mg, Patient 005 Dose 100 mg, 842 hr, read-out: Concentration): 80 µM
concentration at 843 h (100 mg, Patient 005 Dose 100 mg, 843 hr, read-out: Concentration): 98.9 µM
concentration at 844 h (100 mg, Patient 005 Dose 100 mg, 844 hr, read-out: Concentration): 91.4 µM
concentration at 864 h (100 mg, Patient 005 Dose 100 mg, 864 hr (Day 37), read-out: Concentration): 109 µM
concentration at 92 day (100 mg, Patient 005 Dose 100 mg, Day 92): 276 µM
concentration at 0 h (100 mg, Patient 006 Dose 100 mg): 0.21 µM
concentration at 2 h [2]: 32.3 µM
concentration at 3 h [2]: 27.1 µM
concentration at 4 h (100 mg, Patient 006 Dose 100 mg, 4 hr, read-out: Concentration): 24.6 µM
concentration at 24 h (100 mg, Patient 006 Dose 100 mg, 24 hr (Day 2), read-out: Concentration): 28.2 µM
concentration at 168 h (100 mg, Patient 006 Dose 100 mg, 168 hr (Day 8), read-out: Concentration): 26.2 µM
concentration at 170 h [2]: 36.6 µM
concentration at 171 hr (100 mg, Patient 006 Dose 100 mg, 171 hr, read-out: Concentration): 41.1 µM
concentration at 172 hr (100 mg, Patient 006 Dose 100 mg, 172 hr, read-out: Concentration): 47.5 µM
concentration at 192 hr (100 mg, Patient 006 Dose 100 mg, 192 hr (Day 9), read-out: Concentration): 44.7 µM
concentration at 336 h (100 mg, Patient 006 Dose 100 mg, 336 hr (Day 15), read-out: Concentration): 33.1 µM
concentration at 338 h [2]: 49.5 µM
concentration at 339 h [2]: 55.9 µM
concentration at 360 h (100 mg, Patient 006 Dose 100 mg, 360 hr (Day 16), read-out: Concentration): 65.2 µM
concentration at 504 h (100 mg, Patient 006 Dose 100 mg, 504 hr (Day 22), read-out: Concentration): 70.5 µM
concentration at 506 h (100 mg, Patient 006 Dose 100 mg, 506 hr, read-out: Concentration): 76.4 µM
concentration at 507 hr [2]: 83.8 µM
concentration at 528 hr [2]: 97 µM
concentration at 672 h (100 mg, Patient 006 Dose 100 mg, 672 hr (Day 29), read-out: Concentration): 86.9 µM
concentration at 674 h (100 mg, Patient 006 Dose 100 mg, 674 hr, read-out: Concentration): 85.7 µM
concentration at 696 h [2]: 89.5 µM
concentration at 840 h [2]: 85.6 µM
concentration at 842 hr (100 mg, Patient 006 Dose 100 mg, 842 hr, read-out: Concentration): 179 µM
concentration at 843 hr (100 mg, Patient 006 Dose 100 mg, 843 hr, read-out: Concentration): 138 µM
concentration at 844 hr (100 mg, Patient 006 Dose 100 mg, 844 hr, read-out: Concentration): 138 µM
concentration at 864 hr (100 mg, Patient 006 Dose 100 mg, 864 hr (Day 37), read-out: Concentration): 123 µM
concentration at 0 hr (100 mg, Patient 007 Dose 100 mg): 0 nM
concentration at 2 hr [3]: 30.9 µM
concentration at 3 hr [3]: 28.6 µM
concentration at 4 hr (100 mg, Patient 007 Dose 100 mg, 4 hr, read-out: Concentration): 19.3 µM
concentration at 24 hr (100 mg, Patient 007 Dose 100 mg, 24 hr (Day 2), read-out: Concentration): 17.3 µM
concentration at 168 hr (100 mg, Patient 007 Dose 100 mg, 168 hr (Day 8), read-out: Concentration): 12.2 µM
concentration at 336 hr (100 mg, Patient 007 Dose 100 mg, 336 hr (Day 15), read-out: Concentration): 19.2 µM
concentration at 338 hr [3]: 52.8 µM
concentration at 339 hr [3]: 53.1 µM
concentration at 340 hr (100 mg, Patient 007 Dose 100 mg, 340 hr, read-out: Concentration): 55.8 µM
concentration at 360 hr (100 mg, Patient 007 Dose 100 mg, 360 hr (Day 16), read-out: Concentration): 32 µM
concentration at 504 hr (100 mg, Patient 007 Dose 100 mg, 504 hr (Day 22), read-out: Concentration): 39.7 µM
concentration at 506 hr (100 mg, Patient 007 Dose 100 mg, 506 hr, read-out: Concentration): 53.1 µM
concentration at 507 hr [3]: 65.8 µM
concentration at 508 hr (100 mg, Patient 007 Dose 100 mg, 508 hr, read-out: Concentration): 73 µM
concentration at 528 hr [3]: 63.4 µM
concentration at 0 hr (200 mg, Patient 008 Dose 200 mg): 0 nM
concentration at 2 hr [4]: 114 µM
concentration at 3 hr [4]: 102 µM
concentration at 4 h (200 mg, Patient 008 Dose 200 mg, 4 hr, read-out: Concentration): 81 µM
concentration at 24 h (200 mg, Patient 008 Dose 200 mg, 24 hr (Day 2), read-out: Concentration): 70.4 µM
concentration at 168 h (200 mg, Patient 008 Dose 200 mg, 168 hr (Day 8), read-out: Concentration): 64.6 µM
concentration at 170 h [4]: 171 µM
concentration at 171 h (200 mg, Patient 008 Dose 200 mg, 171 hr, read-out: Concentration): 143 µM
concentration at 172 h (200 mg, Patient 008 Dose 200 mg, 172 hr, read-out: Concentration): 130 µM
concentration at 192 h (200 mg, Patient 008 Dose 200 mg, 192 hr (Day 9), read-out: Concentration): 110 µM
concentration at 336 hr (200 mg, Patient 008 Dose 200 mg, 336 hr (Day 15), read-out: Concentration): 124 µM
concentration at 338 hr [4]: 147 µM
concentration at 339 hr [4]: 172 µM
concentration at 340 h (200 mg, Patient 008 Dose 200 mg, 340 hr, read-out: Concentration): 192 µM
concentration at 360 h (200 mg, Patient 008 Dose 200 mg, 360 hr (Day 16), read-out: Concentration): 211 µM
concentration at 504 h (200 mg, Patient 008 Dose 200 mg, 504 hr (Day 22), read-out: Concentration): 277 µM
concentration at 506 h (200 mg, Patient 008 Dose 200 mg, 506 hr, read-out: Concentration): 282 µM
concentration at 507 h [4]: 368 µM
concentration at 508 h (200 mg, Patient 008 Dose 200 mg, 508 hr, read-out: Concentration): 281 µM
concentration at 528 h [4]: 285 µM
concentration at 672 hr (200 mg, Patient 008 Dose 200 mg, 672 hr (Day 29), read-out: Concentration): 337 µM
concentration at 674 hr (200 mg, Patient 008 Dose 200 mg, 674 hr, read-out: Concentration): 356 µM
concentration at 675 hr (200 mg, Patient 008 Dose 200 mg, 675 hr, read-out: Concentration): 321 µM
concentration at 676 h [4]: 364 µM
concentration at 696 h [4]: 426 µM
concentration at 840 h [4]: 425 µM
concentration at 842 h (200 mg, Patient 008 Dose 200 mg, 842 hr, read-out: Concentration): 361 µM
concentration at 843 h (200 mg, Patient 008 Dose 200 mg, 843 hr, read-out: Concentration): 397 µM
concentration at 844 h (200 mg, Patient 008 Dose 200 mg, 844 hr, read-out: Concentration): 414 µM
concentration at 864 h (200 mg, Patient 008 Dose 200 mg, 864 hr (Day 37), read-out: Concentration): 354 µM
concentration at 0 h (200 mg, Patient 009 Dose 200 mg): 0 µM
concentration at 2 h [5]: 93.4 µM
concentration at 3 h [5]: 61.2 µM
concentration at 4 h (200 mg, Patient 009 Dose 200 mg, 4 hr, read-out: Concentration): 71.1 µM
concentration at 24 h (200 mg, Patient 009 Dose 200 mg, 24 hr (Day 2), read-out: Concentration): 64.6 µM
concentration at 168 h (200 mg, Patient 009 Dose 200 mg, 168 hr (Day 8), read-out: Concentration): 60.1 µM
concentration at 170 h [5]: 149 µM
concentration at 171 h (200 mg, Patient 009 Dose 200 mg, 171 hr, read-out: Concentration): 170 µM
concentration at 172 h (200 mg, Patient 009 Dose 200 mg, 172 hr, read-out: Concentration): 139 µM
concentration at 192 h (200 mg, Patient 009 Dose 200 mg, 192 hr (Day 9), read-out: Concentration): 136 µM
concentration at 338 h [5]: 161 µM
concentration at 339 h [5]: 167 µM
concentration at 340 h (200 mg, Patient 009 Dose 200 mg, 340 hr, read-out: Concentration): 153 µM
concentration at 360 h (200 mg, Patient 009 Dose 200 mg, 360 hr (Day 16), read-out: Concentration): 218 µM
concentration at 504 h (200 mg, Patient 009 Dose 200 mg, 504 hr (Day 22), read-out: Concentration): 253 µM
concentration at 506 h (200 mg, Patient 009 Dose 200 mg, 506 hr, read-out: Concentration): 285 µM
concentration at 507 h [5]: 296 µM
concentration at 508 h (200 mg, Patient 009 Dose 200 mg, 508 hr, read-out: Concentration): 362 µM
concentration at 528 h [5]: 242 µM
concentration at 672 h (200 mg, Patient 009 Dose 200 mg, 672 hr (Day 29), read-out: Concentration): 251 µM
concentration at 674 h (200 mg, Patient 009 Dose 200 mg, 674 hr, read-out: Concentration): 472 µM
concentration at 675 h (200 mg, Patient 009 Dose 200 mg, 675 hr, read-out: Concentration): 261 µM
concentration at 676 h [5]: 358 µM
concentration at 696 h [5]: 338 µM
concentration at 840 h [5]: 399 µM
concentration at 842 h (200 mg, Patient 009 Dose 200 mg, 842 hr, read-out: Concentration): 346 µM
